Results as given in PubChem BioAssay AID790 (SRMLSC, 2007).
Calls of active or inactive are those of the source. No rule for the calls is given here.

What was measured:
[1] = test system: S. cerevisiae vps1Δ mutant growth inhibition; experiment: vps1Δ single mutant yeast growth suppression – S. cerevisiae, background strain comparison, dose response (AID 790)
[2] = as above; settings: S. cerevisiae vps1Δ mutant growth inhibition; measured here: background strain growth inhibition

SMILES | IC50 [1] | IC50 [2] [µM]
Cc1cccc(OCC(=O)O/N=C(\N)Cc2ccc(Cl)cc2)c1 | > 10 µM (inactive) | 10.4
COc1ccc(C2CC(=O)C3=C(C2)NC(C)=C(C(=O)Nc2ccccc2C)C3c2coc3ccc(C)cc3c2=O)cc1OC (centres undefined) | > 10 µM (inactive) | > 10
CCC(=O)N(CCO)Cc1cc2ccc(C)c(C)c2[nH]c1=O | > 10 µM (inactive) | > 10
CCc1ccc(N(C(=O)c2csnn2)C(C(=O)NC(C)(C)C)c2ccncc2)cc1 (centres undefined) | > 10 µM (inactive) | > 10
Cc1ccc(C2N(c3ccc(Cl)c(Cl)c3)C(=O)C3CCCN32)o1 (centres undefined) | > 10 µM (inactive) | > 10
COc1ccc(/C=C2\SC(=S)N(NC(=O)c3csc4c3CCCC4)C2=O)cc1 | > 10 µM (inactive) | > 10
Cc1ccc(C)c(NS(=O)(=O)c2cc(C(=O)N3CCc4ccccc4C3)ccc2Cl)c1 | > 10 µM (inactive) | 6.88
Cc1cc2ncn(CC(O)COc3cccc(C(=O)O)c3)c2cc1C (centres undefined) | > 10 µM (inactive) | > 10
O=C(c1ccco1)N1CCN(c2ncnc3c2[nH]c2ccccc23)CC1 | > 10 µM (inactive) | > 10
COc1ccc(C(=O)c2c(C(F)(F)F)oc3c2C(=O)c2ccccc2C3=O)cc1 | 1.99 µM | 2.32
O=C(NCCSCc1ccc(Cl)cc1Cl)c1ccc(CN2CCOCC2)cc1 | > 10 µM (inactive) | > 10
Cc1ccc(S(=O)(=O)N2CC3CC(C2)c2cccc(=O)n2C3)cc1 (centres undefined) | > 10 µM (inactive) | > 10
O=C(CCC(=O)OCC(=O)c1ccc(F)cc1)NC1CCCCC1 | > 10 µM (inactive) | > 10
Cc1cccnc1Nc1nc(-c2ccccn2)cs1 | 4.17 µM | > 10
O=C(NCC(c1cccnc1)N1CCN(c2ccccc2)CC1)C1CCCCC1 (centres undefined) | > 10 µM (inactive) | > 10
CCOC(=O)c1c(NC(=O)CN2CCCCC2)sc2c1CCC(C=O)=C2Cl | > 10 µM (inactive) | > 10
N=c1nc(N)nc2n1NC(c1ccc(F)cc1)=CS2 | > 10 µM (inactive) | > 10
C=C(C)COc1ccc(-c2ncncc2Oc2ccc(OC)cc2)c(O)c1 | > 10 µM (inactive) | > 10
O=S(=O)(c1cnccc1N1CCN(/N=C/c2ccc(Br)cc2)CC1)N1CCCCC1 | > 10 µM (inactive) | > 10
Cc1cc(Cl)cc(C)c1OCCCCN1CCOCC1 | > 10 µM (inactive) | > 10
O=C(O)c1cc(-c2ccc(/C=N/Nc3ccc(Cl)cc3)o2)ccc1Cl | 4.51 µM | 16.4

SMILES | IC50 [1] | IC50 [2] [µM]
CCCCS(=O)(=O)/C=C\C=C/S(=O)(=O)CCCC | 12.1 µM | 13.9
CCN1CCN(c2c(Cl)cccc2NC(=O)c2ccc(Br)o2)CC1 | > 10 µM (inactive) | > 10
Cc1nnc(-c2cccc(Br)c2)c2cn(-c3ccccc3)nc12 | > 10 µM (inactive) | > 10
Cc1ccc2nc(C)cc(OCC(=O)O)c2c1 | > 10 µM (inactive) | > 10
C=CCc1ccc(OCCCCN2CC(C)OC(C)C2)c(OC)c1 (centres undefined) | > 10 µM (inactive) | > 10
c1ccc2c(c1)oc1c(Nc3ccc(CN4CCOCC4)cc3)ncnc12 | > 10 µM (inactive) | > 10
CCN(CC)c1ccc(-c2nc3cnccc3n2C)cc1 | > 10 µM (inactive) | > 10
CC1CC(C)CN(CCOc2ccc(Cl)cc2Cl)C1 (centres undefined) | > 10 µM (inactive) | > 10
CCC(OC(=O)C(NC(=O)c1ccccc1)c1ccccc1)C(=O)Nc1cc(C)on1 (centres undefined) | > 10 µM (inactive) | > 10
Cc1ccc(-n2cc3c(-c4cccc(Br)c4)nnc(C)c3n2)cc1 | 1.48 µM | 13.5
CCCc1cc(NCCCCO)n2c(nc3ccccc32)c1C#N | > 10 µM (inactive) | > 10
Cc1sc(NC(=O)c2ccco2)c(C(c2cccnc2)N2CCC(C)CC2)c1C (centres undefined) | > 10 µM (inactive) | 5.77
CN1CCN(CCCNC(=O)Cn2nc(-c3ccccc3)ccc2=O)CC1 | > 10 µM (inactive) | > 10
Cc1ccc(S(=O)(=O)N(CC(=O)N2CCC(C(N)=O)CC2)c2cccc(C(F)(F)F)c2)cc1 | > 10 µM (inactive) | > 10
O=C(NCCc1ccccc1)C1CCN(S(=O)(=O)N2CCCC2)CC1 | > 10 µM (inactive) | > 10
N#CC1=C(N)C(C#N)(C#N)C(c2cccnc2)C2CC(c3ccccc3)CC=C12 (centres undefined) | 3.03 µM (inactive) | 2.97
CCCCC(=O)Nc1nc(C)c(-c2csc(Nc3ccc(Cl)cc3)n2)s1 | 6.39 µM (inactive) | 6.26
c1ccc(Nc2cc(-c3ccccc3)nc3ncnn23)cc1 | 5.22 µM | > 10
O=c1c2c3c(sc2ncn1/N=C/c1ccc([N+](=O)[O-])o1)CCCC3 | 2.19 µM (inactive) | 1.59
O=C(NC(C(=O)c1ccccc1)N1CCCCC1)c1ccccc1 (centres undefined) | > 10 µM (inactive) | > 10
O=C(Cc1cccs1)Nc1nc2c(s1)CCCC2 | > 10 µM (inactive) | > 10

SMILES | IC50 [1] | IC50 [2] [µM]
CC(=O)c1cnc2nc(C)nn2c1C | > 10 µM (inactive) | > 10
CC1CCCCC1NC(=O)CSc1nnnn1-c1ccccc1 (centres undefined) | > 10 µM (inactive) | > 10
Cc1cccc(CS(=O)(=O)Cc2ccc(C(=O)NCCCN3CCCC3)o2)c1 | > 10 µM (inactive) | > 10
Cc1c(Cl)c([N+](=O)[O-])nn1Cc1ccc(C(=O)N/N=C\c2cccc(Br)c2)o1 | < 0.049 µM | > 10
COC(=O)c1ccc(NC(=O)c2cn(-c3ccccc3)nc2-c2ccncc2)cc1 | > 10 µM (inactive) | > 10
CCOC(=O)C1CCN(Cc2cnc(Oc3ccc(Cl)cc3C)s2)CC1 | > 10 µM (inactive) | > 10
FC(F)(F)COc1nc(N2CCCCC2)nc(N2CCNCC2)n1 | > 10 µM (inactive) | > 10
Fc1ccc(-c2noc(C3CCN(Cc4cccnc4)CC3)n2)cc1 | > 10 µM (inactive) | > 10
CC(C)Cc1[nH]c(=O)c(C#N)c2c1CCC2 | > 10 µM (inactive) | > 10
CCCOc1ccccc1N/C(=N/c1nc(C)cc(C)n1)NC(=O)COc1ccc(OC)cc1 | > 10 µM (inactive) | > 10
CC1CCCN(CCOCCOc2ccc(Cl)cc2Br)C1 (centres undefined) | > 10 µM (inactive) | > 10
CCN(CC)c1ccc(CN2CC=C(c3ccc(F)cc3)CC2)cc1 | > 10 µM (inactive) | 25.8
O=C(OCn1ncc(Cl)c(Cl)c1=O)c1ccc(C(F)(F)F)cc1 | > 10 µM (inactive) | > 10
COc1cccc(-c2cc(C(=O)N3CCN(C(c4ccccc4)c4ccccc4)CC3)no2)c1 | > 10 µM (inactive) | > 10
CC(C)c1ccc(C2C3CSCC=C3C(C#N)=C(N)C2(C#N)C#N)cc1 (centres undefined) | 1.77 µM (inactive) | 0.843
Cn1c2ccc(Cl)cc2c2nc3ccccc3nc21 | > 10 µM (inactive) | > 10
CCOCCCNC(=O)c1cc2sc(Cl)cc2n1CC | > 10 µM (inactive) | > 10
O=C(Cn1nnc(-c2ccc(S(=O)(=O)N3CCCC3)cc2)n1)NCC1CCCO1 (centres undefined) | > 10 µM (inactive) | > 10
c1coc(CNc2nc(N3CCCCC3)nc3ccccc23)c1 | > 10 µM (inactive) | > 10
CCC(C)c1ccc(OCCCCN2CCOCC2)cc1 (centres undefined) | > 10 µM (inactive) | > 10
CCn1c(-c2c[nH]c3ccccc23)n[nH]c1=S | > 10 µM (inactive) | > 10

SMILES | IC50 [1] | IC50 [2] [µM]
Cc1c(Cc2ccccc2)c(=O)oc2c(C)c(OCc3nn[nH]n3)ccc12 | > 10 µM (inactive) | > 10
O=C(NCC(c1cccnc1)N1CCN(c2ccccc2)CC1)c1ccc2c(c1)OCO2 (centres undefined) | > 10 µM (inactive) | > 10
Cc1nn(-c2ccccn2)c(C)c1Oc1ccccc1O | > 10 µM (inactive) | > 10
CCCn1c(SCc2cc(=O)oc3ccc4ccccc4c23)n[nH]c1=O | > 10 µM (inactive) | > 10
O=C(OCn1nnc2ccccc2c1=O)c1cn(-c2ccccc2)nc1-c1cccnc1 | > 10 µM (inactive) | > 10
O=C(COc1ccc(Cl)cc1Cl)NCCCN1CCOCC1 | > 10 µM (inactive) | > 10
COc1ccc(NC(=O)N(C2CCCCC2)C(C)c2cccnc2)c(OC)c1 (centres undefined) | 16.5 µM | 16.7
O=C(c1ccco1)N1CCN=C1SCc1cccnc1 | > 10 µM (inactive) | > 10
O=C(NCc1ccccc1)NS(=O)(=O)c1ccccc1Cl | > 10 µM (inactive) | > 10
O=S(=O)(c1ccc(Cl)cc1)N1CCN(C2CCN(Cc3ccccc3)CC2)CC1 | > 10 µM (inactive) | > 10
CCC(=O)c1ccc(N2CCN(C(=O)c3ccc(Br)cc3)CC2)c(F)c1 | > 10 µM (inactive) | > 10
O=C(CC(=O)c1cc(Cl)ccc1O)c1ccccc1 | 2.11 µM | 12.7
O=C(Nc1cccc(Cl)c1)N1CCN(C/C=C/c2ccccc2)CC1 | > 10 µM (inactive) | > 10
O=C1OCC(CO)(CO)N=C1NNc1ccc(Cl)c(Cl)c1 | 2.43 µM | 3.35
C=CCc1ccc(OCC(O)CN2CCC(Cc3ccccc3)CC2)c(OC)c1 (centres undefined) | 19.4 µM (inactive) | 19.1
O=C(C1CCN(S(=O)(=O)c2cccs2)CC1)N1CCCCCC1 | > 10 µM (inactive) | > 10
CCOc1cc(/C=C\[N+](=O)[O-])ccc1OCC(=O)Nc1ccccc1C | 25.4 µM | > 10
CCCC(=O)Nc1ccc(Cl)c(NC(=O)c2cccnc2Cl)c1 | > 10 µM (inactive) | > 10
CS(=O)(=O)N1CCC(C(=O)NCCN2CCN(Cc3ccccc3)CC2)CC1 | > 10 µM (inactive) | > 10
